These results are taken from ChEMBL document CHEMBL5620360, “Design, synthesis and biological evaluation of 4-(4-aminophenoxy)picolinamide derivatives as potential antitumor agents” (Eur J Med Chem, 2023).

Broadly, the AUC(0-t) is exposure summed from dosing to a finite time, without extrapolation to infinity. By AUC(0-inf) is commonly meant the area under the concentration-time curve extrapolated to infinity. High values mean high exposure, low ones low exposure. As a reminder, the Cmax is the maximum level reached in the sampled fluid or tissue. In general, IC50 refers to the concentration needed to halve the response being measured.

Structures are written as SMILES. Where only a bound is given, the exact number is not on record here.

Series [1] concerns A549. As to the kind of experiment: Induction of apoptosis in human A549 cells assessed as viable cells at 5 uM measured after 24 hrs by AnnexinV-FITC/PI staining based flow cytometry (reference value: 93.25%). It counts as functional. The note with it: read-out: Activity. Background: In flow cytometry, cells or beads pass a laser one at a time.
Series [2] concerns A549. The series can be described thus: Induction of apoptosis in human A549 cells assessed as late apoptotic cells at 5 uM measured after 24 hrs by AnnexinV-FITC/PI staining based flow cytometry (reference value: 1.47%). It counts as functional.
The subject of series [3] is A549. As to the kind of experiment: Induction of apoptosis in human A549 cells assessed as necrotic cells at 10 uM measured after 24 hrs by AnnexinV-FITC/PI staining based flow cytometry (reference value: 4.01%). It counts as functional.
Series [4] has as its system A549. As to the kind of experiment: Induction of cell cycle arrest in human A549 cells assessed as accumulation of cells at S phase at 5 uM incubated for 24 hrs by propidium iodide staining based flow cytometry (reference value: 38.18%). It counts as functional.
Series [5] is described as follows: AUC(0 to t) in Sprague-Dawley rat at 1 mg/kg, iv by LC-MS/MS analysis. It counts as ADME, organism-based. As to conditions: in vivo.
A short description of series [6]: AUC(0 to infinity) in Sprague-Dawley rat at 1 mg/kg, iv by LC-MS/MS analysis. As to conditions: in vivo. It is filed as ADME, organism-based.
The nature of series [7]: Cmax in Sprague-Dawley rat at 1 mg/kg, iv by LC-MS/MS analysis. It counts as ADME, organism-based. The note with it: in vivo.
Series [8] in a line: Cmax in Sprague-Dawley rat at 10 mg/kg, po by LC-MS/MS analysis. It counts as ADME, organism-based. As to conditions: in vivo.
Series [9] has as its target T1, Receptor-type tyrosine-protein kinase FLT3 (Homo sapiens, UniProt P36888).
T1 sequence (P36888 whole entry): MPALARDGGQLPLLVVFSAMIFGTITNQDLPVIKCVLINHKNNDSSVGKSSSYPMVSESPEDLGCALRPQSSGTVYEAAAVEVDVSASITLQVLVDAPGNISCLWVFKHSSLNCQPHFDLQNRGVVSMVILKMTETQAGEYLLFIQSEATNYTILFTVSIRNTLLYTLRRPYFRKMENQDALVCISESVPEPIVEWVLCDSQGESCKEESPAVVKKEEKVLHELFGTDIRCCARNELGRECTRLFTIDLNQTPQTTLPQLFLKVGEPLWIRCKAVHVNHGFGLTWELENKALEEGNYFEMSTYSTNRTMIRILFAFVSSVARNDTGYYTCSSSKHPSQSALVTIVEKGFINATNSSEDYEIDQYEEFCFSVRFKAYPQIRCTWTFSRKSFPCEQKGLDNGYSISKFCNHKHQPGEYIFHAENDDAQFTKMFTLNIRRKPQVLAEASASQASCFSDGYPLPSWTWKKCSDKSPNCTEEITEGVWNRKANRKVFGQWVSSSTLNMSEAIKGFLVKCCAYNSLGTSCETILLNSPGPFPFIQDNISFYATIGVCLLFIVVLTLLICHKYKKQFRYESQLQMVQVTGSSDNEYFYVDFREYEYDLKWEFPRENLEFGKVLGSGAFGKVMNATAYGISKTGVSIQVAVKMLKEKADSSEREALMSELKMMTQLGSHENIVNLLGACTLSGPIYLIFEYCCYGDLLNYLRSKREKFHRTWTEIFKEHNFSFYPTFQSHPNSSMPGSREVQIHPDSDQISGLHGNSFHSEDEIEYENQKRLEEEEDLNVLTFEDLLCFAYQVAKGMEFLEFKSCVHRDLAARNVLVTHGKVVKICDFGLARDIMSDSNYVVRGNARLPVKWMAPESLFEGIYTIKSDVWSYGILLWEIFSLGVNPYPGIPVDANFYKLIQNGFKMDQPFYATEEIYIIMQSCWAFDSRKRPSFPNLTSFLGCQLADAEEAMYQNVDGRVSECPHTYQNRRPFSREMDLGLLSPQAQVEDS
As to the kind of experiment: Inhibition of Flt3 (unknown origin).

In the case of `O=C(NCCCN1CCOCC1)c1cc(Oc2ccc(NC(=O)c3cn(-c4ccc(F)c(Cl)c4)c4ncccc4c3=O)cc2F)ccn1`, the viability at 5 µM in the series with A549 [1] was 85.2%. Also, the Activity with A549 [2] was found to be 4.29%; with A549 [3] it was 11.9%; with A549 [4], 30.85%. The same compound registered an AUC(0-t) in series [5] of 2860 ng·h/mL. Further, in series [6], the AUC(0-inf) worked out at 2870 ng·h/mL. In addition, the Cmax is 1630 ng/mL in [7] and 390 ng/mL in series [8]. This compound also yielded an IC50 in series [9] of more than 100 µM.
